Results as given in article PMC5739799 (Oncotarget, 2017).
Where two headings read alike, the source gives them in different places.

What was measured:
HCC-PDX model 189 = test: Patient-derived HCC xenograft model 189, tumor growth; assay type: in vivo, BALB/c nude mice; details: for Mean TV: day 21, R 10 / S 30 mg/kg/day oral starting dose; for RTV: end of study
Method: (§1) The PDX studies were carried out by WuXi AppTec (Shanghai, China). HCC-PDX models were originally established from surgically resected tumor tissue that was implanted in 6–8-week-old female BALB/c nude mice. Animal studies were performed according to the guidelines approved by the Institutional Animal Care and Use Committee of Wuxi AppTec, which follow the guidance of the Association for the Assessment and Accreditation of Laboratory Animal Care. Animals were routinely monitored for their health status and their body weights. Treatment was suspended and/or doses reduced at body weight losses >10%. Animals were euthanized when the tumor size exceeded 2000 mm^3. Pieces from tumor xenografts (∼30 mm^3) from passages 4–8 (ST1) were implanted subcutaneously at the right flank, and tumors were grown to an average size of about 150–200 mm^3. […] Tumor size was measured twice weekly using caliper measurements. Tumor volume (mm^3) was calculated using the formula 0.5 a × b^2, where a and b are the long and short diameters of the tumor, respectively. TGI was assessed either by calculating the ratio of the mean tumor volumes of treated and control groups or by determination of the RTV, which relates tumor volumes at any given day of treatment to the volume at the first treatment day.
(§2) In the syngenic orthotopic H129 model, differences in survival times between groups were analyzed for significance using log-rank tests. Analysis of tumor volumes of the HCC-PDX models was performed with log2-transformed values on defined days of measurement based on the assumption of their log-normal distribution. […] All respective statistical test results were derived from a common linear model that allows for individual variances in the different groups. The adjustment for multiple testing was carried out using Šidák correction at a significance level of 0.05. Back transformation of the mean difference of log2-transformed tumor volumes led to the ratios of the compared groups, whereby ratios of 1 reflect no difference in tumor volumes and ratios below or above 1 reflect smaller or larger tumor volumes, respectively, of the respective second group. The analyses of RTV were carried out in a similar fashion without the log2 transformation of values. Bead-based western data were analyzed (described in [15]) using the MEV 4.8.1 software package. A p-value <0.05 was regarded as significant. All statistical analyses were performed with SAS® 9.4 [34].

HCC-PDX model 217 = test: Patient-derived HCC xenograft model 217, tumor growth; assay type: in vivo, BALB/c nude mice; details: for Mean TV: day 13, R 10 / S 30 mg/kg/day oral; for RTV: end of study (RTV analysis day R 24, S 20)
Method: as §1, §2

[1] = tested on: HCC-PDX model 189 xenografts; test: DigiWest bead-based multiplex western blot of treated xenografts; assay type: in vivo, BALB/c nude mice; details: 24 hours after last dose, sorafenib 30 mg/kg/day
Method: For high-content Western analysis, DigiWest was performed as described by Treindl et al.. In brief, xenograft tissue was ground by a Mikro-Dismembrator (Sartorius) and subsequently lysed by the addition of 2× LDS lysis buffer (Life Technologies™) and heated to 95°C for 9 minutes with several vortexing steps. Undissolved material was removed by consecutive centrifugation at 20°C for 2 minutes at 300 x g, 5 minutes at 16,000 x g, and through a QIAshredder homogenizer tube (Qiagen) for 5 minutes at 16,000 x g. Protein concentration was determined by in-gel staining. 3 μL lysate was separated by SDS-PAGE stained with IRDye® Blue and detected with a Li-COR Odyssey Infrared Imaging System (Li-COR Biosciences, Bad Homburg, Germany) at 700 nm. Next, 12 μg protein per sample was separated using 4–12% Bis-Tris gels (Life Technologies™) according to the manufacturer’s instructions. Blotting onto PVDF membranes (Millipore) was performed under standard conditions. Proteins immobilized on the blotting membrane were biotinylated (NHS-PEG12-Biotin, Thermo Scientific) and individual sample lanes were cut into 96 strips each (height 0.5 mm each, strip width 7.5 mm) using an electronic cutting tool (Silhouette SD). Each individual strip was placed in a separate well of a 96-well plate, and protein was eluted for 2 hours in 10 μL elution buffer (8 M urea, 1% Triton-X100 in 100 mM Tris-HCl, pH 9.5). After the addition of 90 μL of dilution buffer (5% BSA in PBS, 0.02% sodium azide, 0.05% Tween-20), 96 different Neutravidin-coated Luminex bead sets (40,000 beads/well) were added to the individual wells, and eluted biotinylated proteins were captured on the bead surface during overnight incubation. After incubation, the Luminex beads were pooled, washed, and stored in storage buffer (1% BSA, 0.05% Tween-20, 0.05% sodium azide in PBS) at 4°C.
For antibody incubation, an aliquot of the bead pool was transferred into an assay plate and 30 μL of diluted western blot antibody in assay buffer (Blocking Reagent, Roche Applied Science; 0.05% Tween 20, 0.02% sodium azide, 0.2% milk powder) was added per well. 116 antibody incubations on 12 samples were performed overnight at 4°C. For read-out, beads were washed twice with 100 μL of PBST before species-specific PE-labeled secondary antibodies (Jackson) were added in 30 μL of assay buffer for 1 hour. […]
DigiWest analysis was performed as previously described. In brief, data generated by the Luminex instrument were analyzed using a dedicated analysis tool that visualizes the fluorescent signals as bar graphs and identifies antibody-specific peaks. […] After background correction, specific signal intensities are calculated as the integral of the identified peak.

unresectable HCC (uHCC) [2] = details: patients with uHCC; placebo 7.9 months; cited from earlier work
unresectable HCC (uHCC) [3] = details: placebo 4.2 months; cited from earlier work
[4] = tested on: uHCC progressed on sorafenib treatment; design: method as in PMID 27932229; details: patients with uHCC who progressed on sorafenib, cited from earlier work

Structure (SMILES): CNC(=O)c1cc(Oc2ccc(NC(=O)Nc3ccc(Cl)c(C(F)(F)F)c3)cc2)ccn1 [Sorafenib]
- RTV Differences of least square-means, compound vs vehicle (HCC-PDX model 189; day 21): -29,028
- Mean TV (HCC-PDX model 189): 351.96 mm^3
- log TV Differences of least square-means, compound vs vehicle (HCC-PDX model 189; day 21, log2-transformed TV): -10,604
- RTV (HCC-PDX model 189; day 21): 2.66
- Mean TV (HCC-PDX model 217): 1087.45 mm^3
- log TV Differences of least square-means, compound vs vehicle (HCC-PDX model 217; day 13, log2-transformed TV): -10,119
- RTV (HCC-PDX model 217): 10.84
- FGF-1 protein expression vs vehicle [1]: downregulated
- Full-length PARP protein expression vs vehicle [1]: significantly downregulated
- Mst2 protein expression vs vehicle [1]: downregulated
- cdc2-pY15 protein expression vs vehicle [1]: downregulated
- Median OS (unresectable HCC (uHCC) [2]): 10.7 months
- Median OS (unresectable HCC (uHCC) [3]): 6.5 months

Structure (SMILES): CNC(=O)c1cc(Oc2ccc(NC(=O)Nc3ccc(Cl)c(C(F)(F)F)c3)c(F)c2)ccn1 [Regorafenib]
- RTV Differences of least square-means, compound vs vehicle (HCC-PDX model 189; day 21): -31,656
- RTV Differences of least square-means, regorafenib vs sorafenib (HCC-PDX model 189; day 21): -0.2628
- log TV Ratio, compound vs vehicle (T/C) (HCC-PDX model 189; day 21): 0.42
- log TV Ratio, regorafenib vs sorafenib (HCC-PDX model 189; day 21): 0.88
- Mean TV (HCC-PDX model 189): 322.88 mm^3
- log TV Differences of least square-means, compound vs vehicle (HCC-PDX model 189; day 21, log2-transformed TV): -12,395
- log TV Differences of least square-means, regorafenib vs sorafenib (HCC-PDX model 189; day 21, log2-transformed TV): -0.1791
- RTV (HCC-PDX model 189; day 21): 2.39
- RTV Differences of least square-means, regorafenib vs sorafenib (HCC-PDX model 217; RTV analysis day R 24, S 20): -14,902
- log TV Ratio, compound vs vehicle (T/C) (HCC-PDX model 217; day 13): 0.45
- log TV Ratio, regorafenib vs sorafenib (HCC-PDX model 217; day 13): 0.92
- Mean TV (HCC-PDX model 217): 932.43 mm^3
- log TV Differences of least square-means, compound vs vehicle (HCC-PDX model 217; day 13, log2-transformed TV): -11,395
- log TV Differences of least square-means, regorafenib vs sorafenib (HCC-PDX model 217; day 13, log2-transformed TV): -0.1276
- RTV (HCC-PDX model 217): 12.77
- Hazard ratio for OS vs placebo ([4]; 95% CI 0.50, 0.79): 0.63
- Median OS ([4]; placebo 7.8 months): 10.6 months
